Source: ChEMBL document CHEMBL5724914, “Linking interpersonal differences in gut microbiota composition and drug biotransformation activity” (2024)

Columns and labels:
[1] = human gut metagenome, 24 h, 2 µM
[2] = human gut metagenome, 24 h, 2 µM; remark: listed apart in the source
[3] = human gut metagenome, 24 h, 2 µM; remark: listed apart in the source
[4] = (§1) The drug is tested on Z-002 corresponding to rabbit gut metagenome with ENA study accession number: PRJEB37062 and ENA sample accession number: ERS12561802 for biotransformation under anaerobic condition. The drug concentrations were measured over 9 timepoints collected between 0 and 24 hours of incubation by liquid-chromatography-coupled mass spectrometry (LC–MS); settings: 2 µM
[5] = as §1, with “Z-019” for “Z-002”, “rat” for “rabbit”, “ERS12561818” for “ERS12561802”; settings: 2 µM
[6] = human gut metagenome, 24 h, 2 µM; remark: listed apart in the source
[7] = human gut metagenome, 24 h, 2 µM; remark: listed apart in the source
[8] = human gut metagenome, 24 h, 2 µM; remark: listed apart in the source
[9] = as §1, with “Z-014” for “Z-002”, “rat” for “rabbit”, “ERS12561814” for “ERS12561802”; settings: 2 µM
[10] = as §1, with “WLS-098” for “Z-002”, “human” for “rabbit”, “ERS12561754” for “ERS12561802”; settings: 2 µM
[11] = human gut metagenome, 24 h, 2 µM; remark: listed apart in the source
[12] = human gut metagenome, 24 h, 2 µM; remark: listed apart in the source
[13] = human gut metagenome, 24 h, 2 µM; remark: listed apart in the source
[14] = human gut metagenome, 24 h, 2 µM; remark: listed apart in the source
[15] = as §1, with “WLS-006” for “Z-002”, “human” for “rabbit”, “ERS12561741” for “ERS12561802”; settings: 2 µM
[16] = human gut metagenome, 24 h, 2 µM; remark: listed apart in the source
[17] = as §1, with “Z-003” for “Z-002”, “pig” for “rabbit”, “ERS12561803” for “ERS12561802”; settings: 2 µM
[18] = human gut metagenome, 24 h, 2 µM; remark: listed apart in the source
[19] = as §1, with “Z-009” for “Z-002”, “pig” for “rabbit”, “ERS12561809” for “ERS12561802”; settings: 2 µM
[20] = human gut metagenome, 24 h, 2 µM; remark: listed apart in the source
Further: call rule not given here.

Structure (SMILES)	Bacterial Biotransformation [1]	Bacterial Biotransformation [2]	Bacterial Biotransformation [3]	Bacterial Biotransformation [4]	Bacterial Biotransformation [5]	Bacterial Biotransformation [6]	Bacterial Biotransformation [7]	Bacterial Biotransformation [8]	Bacterial Biotransformation [9]	Bacterial Biotransformation [10]	Bacterial Biotransformation [11]	Bacterial Biotransformation [12]	Bacterial Biotransformation [13]	Bacterial Biotransformation [14]	Bacterial Biotransformation [15]	Bacterial Biotransformation [16]	Bacterial Biotransformation [17]	Bacterial Biotransformation [18]	Bacterial Biotransformation [19]	Bacterial Biotransformation [20]
C[C@@H](CO)NC(=O)[C@@H]1C=C2c3cccc4[nH]cc(c34)C[C@H]2N(C)C1.O=C(O)/C=C\C(=O)O [ERGONOVINE MALEATE]	Compound metabolized	Compound metabolized	Compound metabolized	Compound NOT metabolized	Compound NOT metabolized	Compound metabolized	Compound NOT metabolized	Compound NOT metabolized	Compound NOT metabolized	Compound NOT metabolized	Compound metabolized	Compound metabolized	Compound metabolized	Compound NOT metabolized	Compound metabolized	Compound metabolized	Compound NOT metabolized	Compound metabolized	Compound NOT metabolized	Compound metabolized
OCCOCCN1CCN(C2=Nc3ccccc3Sc3ccccc32)CC1 [QUETIAPINE]	Compound metabolized	Compound metabolized	Compound NOT metabolized	Compound metabolized	Compound NOT metabolized	Compound NOT metabolized	Compound NOT metabolized	Compound NOT metabolized	Compound NOT metabolized	Compound metabolized	Compound metabolized	Compound metabolized	Compound NOT metabolized	Compound metabolized	Compound NOT metabolized	Compound NOT metabolized	Compound NOT metabolized	Compound metabolized	Compound NOT metabolized	Compound metabolized
COc1cc2nc(N(C)CCCNC(=O)C3CCCO3)nc(N)c2cc1OC (stereo not given) [ALFUZOSIN]	Compound metabolized	Compound metabolized	Compound metabolized	Compound metabolized	Compound NOT metabolized	Compound NOT metabolized	Compound NOT metabolized	Compound NOT metabolized	Compound NOT metabolized	Compound metabolized	Compound metabolized	Compound NOT metabolized	Compound metabolized	Compound metabolized	Compound metabolized	Compound NOT metabolized	Compound metabolized	Compound metabolized	Compound metabolized	Compound metabolized
